Assay results: PMC9673804, “Design, synthesis and antitumor evaluation of novel pyrazolo[3,4-d]pyrimidines incorporating different amino acid conjugates as potential DHFR inhibitors” (Journal of Enzyme Inhibition and Medicinal Chemistry, 2022)
“Also recorded” adds a separate entry of the source.

What was measured:
[1] = test system: MCF-7 breast cancer cell line; assay: Flow cytometric cell cycle analysis; type: cell-based, human
Excerpt: Clearly, compound 7f enhanced the accumulation proportion of cells at the pre-G1 phase from 2.19 to 41.36%, and the accumulation percentages in S phase from 31.87 to 46.36%. […] Figure 8).

[2] = test system: MCF-7 breast cancer cell line; assay: Annexin-V-FITC/PI cell apoptosis assay; type: cell-based, human; conditions: MCF-7, Annexin V-FITC/PI, 24 h
Method: Cell cycle analysis was done for the compound 7f against MCF-7 breast cancer cell line[11]^,[14]. Clearly, compound 7f enhanced the accumulation proportion of cells at the pre-G1 phase from 2.19 to 41.36%, and the accumulation percentages in S phase from 31.87 to 46.36%.
Flow cytometric analysis using Annexin-V-fluoresce in isothiocyanate (FITC) and propidium iodide (PI) staining kit (BD Pharmingen, San Diego, USA) was performed to assess the apoptosis. At 70% confluence, the cells were treated with compound 7f at different concentrations of (0–8 μmol/l) for 24 h. Then after trypsinization of cells, washing with PBS and centrifugation, the cells were mixed with FITC and PI in binding buffer. Becton Dickinson (Franklin Lakes, NJ, USA) was used to do the flow cytometry analysis[16]^,[17].

Bcl-2 [3] = assay: Western blot of Bcl-2 expression in MCF-7; type: cell-based, human
Method: (§1) The effect of compound 7f on the expression of DHFR, Casp3, Bax, and Bcl-2 proteins in MCF-7 cancer cells was evaluated by western blotting as previously performed. The cancer cells treated or untreated were collected were harvested and blotted on SDS-polyacrylamide gel and separated by Cleaver electrophoresis unit (Cleaver, UK), transferred onto polyvinylidene fluoride (PVDF) membranes (Millipore, USA) for 30 min using a Semi-dry Electroblotter (Biorad, USA) at 2.5 A and 25 V for 30 min. […] After washing, the chemiluminescent Western ECL substrate (Perkin Elmer, Waltham, MA, USA) was applied to the blot and then incubated for 1 min with a mixture of equal volumes from ECL solution A and ECL solution B. The chemiluminescent signals were captured using a CCD camera-based imager (Chemi Doc imager, Biorad, USA), and the bands intensities were then measured by Image J software program. […] For colorimetric assays two-way ANOVA test followed by Bonferroni posttest were used, while for quantification expression on western blot, student-t-test was used (significance p < 0.05). […]
(§2) Sodium dodecyl sulfate polyacrylamide gel electrophoresis (SDS-PAGE) is used to separate proteins based on their size. […] The secondary antibody is typically linked to an enzyme that produces luminescence upon the reaction with its substrate. […]

[4] = test system: normal immortalised pancreatic cell line (HPDE); assay: SRB cytotoxicity assay, normal HPDE cells; type: cell-based; conditions: normal immortalized HPDE cell line
Method: (§3) The SRB colorimetric assay was employed to assess the synthesized compounds’ cytotoxic effects on several cancer cell lines (Table 1)[11–14]. […] Furthermore, the effect of tested compounds was evaluated on the normal immortalized HPDE cell line.
(§4) Sulforhodamine B (SRB) assay was employed to assay in-vitro antitumor activities of all the synthesised compounds as describer previously. […] The cell lines were obtained from the American Type Culture Collection (Rockville, USA).

[5] = test system: colorectal carcinoma (HCT-116); assay: SRB cytotoxicity assay, HCT-116; type: cell-based; conditions: Homo sapiens, HCT-116 cells
Method: as §3, §4

Bcl-2 [6] = assay: Bcl-2 ELISA in MCF-7; type: cell-based, human; conditions: dose-dependent
Method: The apoptotic effect of compound 7f on breast cancer cell line MCF-7 were evaluated by quantification of Bax, caspase 3/7, and Bcl-2 using Bax ELISA Kit ab199080 (ABCAM, Cambridge, UK), Caspase-Glo 3/7 assay kits (Promega, Fitchburg, MA, USA), and Bcl-2 ELISA Kit ab119506 (ABCAM, Cambridge, UK), according the instructions of manufacturers[11]^,[14]. The cells were treated with compounds 7f (½ IC50, IC50, or 2 ×IC50), and the activities were shown as a percentage change from the untreated control. The experiments were performed in triplicate applying two-way ANOVA test followed by Bonferroni posttest to evaluate the significance (p < 0.05).

[7] = test system: human prostate cancer (PC-3); assay: SRB cytotoxicity assay, PC-3; type: cell-based; conditions: PC-3 cells
Method: as §3, §4

caspase 3 = assay: Western blot of caspase-3 expression in MCF-7; type: cell-based, human
Method: as §1, §2

## N=C(N)NCCCC(NC(=O)c1ccc(Nc2ncnc3c2cnn3-c2ccccc2)cc1)C(=O)O (stereo not shown) [Compound 7f, 5-Guanidino-2-{4-[(1-phenyl-1H-pyrazolo[3,4-d]pyrimidin-4-yl)amino]benzamido}pentanoic acid]
[1]; MCF-7 cells
  Comment (cell cycle arrest): arrested cell cycle at S phase; also recorded: Cell growth arrest at S
[1]; MCF-7 cells treated with the compound, control 2.19
  %Pre-G1: 41.36%
[1]; MCF-7 cells treated with the compound, control 12.01
  %G2/M: 1.5%
[1]; MCF-7 cells treated with the compound, control 31.87
  %S: 46.39%
[1]; MCF-7 cells treated with the compound, control 56.12
  %G0-G1: 52.11%
[2]; control 0.13
  Apoptosis Late: 21.31%
[2]; control 0.66
  Apoptosis Early: 14.12%
[2]; control 1.4
  Necrosis: 5.93%
Bcl-2 [3]; MCF7 cells, Cont.MCF7 0.762
  western blotting OD Bcl2: 0.501 OD
Bcl-2 [3]; MCF-7, compound at IC50
  expression of Bcl-2 (western blot): significantly down-regulated the expression of Bcl-2
[4]
  IC50: > 50 µM
[5]
  IC50: 5.48 ± 0.04 µM
Bcl-2 [6]
  Bcl-2 production (ELISA): significantly reduced the Bcl-2 production
[7]
  IC50: 6.29 ± 0.56 µM
Caspase 3; MCF7 cells, Cont.MCF7 0.171
  western blotting OD Casp3: 0.575 OD
Caspase 3; MCF-7
  expression of caspase 3 (western blot): significantly increased the expression
